“And” between values parts separate entries of the source, which are not always exact repeats. Identical values can stand only once. Like-named read-outs stand apart in the source and are kept apart here. *1 amine or outer side, *2 acyl side, *3 side chain or, on linkers, in order; H or OH if unused. Where a SMILES comes first, the peptide text is derived from it. [ ]: non-standard residue; d: D form. γGlu = O=C(O)[C@H](CCC(=O)[*:2])N[*:1]; Abu = CC[C@H](N)C(=O)O
Assays:
[1] = target: T1, feline CaSR (f:CaSR) (Felis catus, UniProt A0ABI7YY68); assay: in vitro PAM testing of amino acids on feline CaSR, single-injection protocol, shift of calcium EC50; assay type: cell-based; conditions: for EC50: CaCl2 alone, control of the same experiment, read-out: EC50 of Ca^2+ before the shift (without amino acid)
T1 sequence (A0ABI7YY68 entry or part of it): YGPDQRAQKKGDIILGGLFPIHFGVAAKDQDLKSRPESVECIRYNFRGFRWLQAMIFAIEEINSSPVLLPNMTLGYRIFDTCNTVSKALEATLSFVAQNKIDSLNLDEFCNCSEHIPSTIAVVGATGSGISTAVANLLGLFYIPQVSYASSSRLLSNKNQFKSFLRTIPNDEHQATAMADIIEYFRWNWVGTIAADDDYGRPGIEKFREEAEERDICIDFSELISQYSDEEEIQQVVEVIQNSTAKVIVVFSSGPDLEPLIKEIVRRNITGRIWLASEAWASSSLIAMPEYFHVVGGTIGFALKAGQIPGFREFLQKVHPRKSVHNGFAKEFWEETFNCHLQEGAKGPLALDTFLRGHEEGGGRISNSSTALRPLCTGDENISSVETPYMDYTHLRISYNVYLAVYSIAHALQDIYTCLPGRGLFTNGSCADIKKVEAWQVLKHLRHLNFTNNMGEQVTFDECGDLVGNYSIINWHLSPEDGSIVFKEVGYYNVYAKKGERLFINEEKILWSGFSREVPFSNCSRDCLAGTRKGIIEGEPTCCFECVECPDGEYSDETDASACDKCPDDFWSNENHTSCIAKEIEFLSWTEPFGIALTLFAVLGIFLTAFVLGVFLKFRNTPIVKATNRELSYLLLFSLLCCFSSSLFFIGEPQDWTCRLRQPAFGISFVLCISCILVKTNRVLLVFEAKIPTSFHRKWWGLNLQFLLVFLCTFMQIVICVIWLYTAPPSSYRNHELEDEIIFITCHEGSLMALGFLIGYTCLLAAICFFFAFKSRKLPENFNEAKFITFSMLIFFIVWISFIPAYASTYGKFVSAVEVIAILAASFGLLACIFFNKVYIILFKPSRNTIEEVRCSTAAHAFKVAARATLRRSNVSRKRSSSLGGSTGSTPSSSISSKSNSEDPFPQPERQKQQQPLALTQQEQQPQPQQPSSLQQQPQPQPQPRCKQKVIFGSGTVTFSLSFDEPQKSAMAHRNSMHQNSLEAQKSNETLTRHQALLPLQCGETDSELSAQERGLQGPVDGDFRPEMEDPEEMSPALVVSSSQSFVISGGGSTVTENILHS
Description: Methods: HEK293TRex/nat-Clytin cells that inducibly express a feline CaSR (f:CaSR) transgene construct was used to screen 30 amino acids to identify compounds that modulate f:CaSR activity. […] The HEK293 cells were seeded at 10,000 cells/well in 384 MTP. 24 hours after cell seeding, cells were loaded with 10 μm coelenterazine in an assay buffer (20 μL/well) for 4 h at room temperature. […] CaCl2 alone was used as a control.
PAM mode (single-injection): Test compound (6× concentrated) and CaCl2 (6× concentrated) were directly mixed 1:1 on the compound plate to get a 3× concentrated working solution of each test compound and control. 10 μl/well of the test compound or control working mixture was injected, and luminescence (i.e., PAM activity) was measured.

[2] = target: T1, feline CaSR (f:CaSR); assay: cell-based; assay type: cell-based
[3] = tested on: feline umami (T1R1/T1R3) receptor; conditions: cited from earlier work
[4] = target: T2, Human CaSR (Homo sapiens, UniProt P41180); conditions: Yes/No; cited from earlier work
T2 sequence (P41180 20-1078): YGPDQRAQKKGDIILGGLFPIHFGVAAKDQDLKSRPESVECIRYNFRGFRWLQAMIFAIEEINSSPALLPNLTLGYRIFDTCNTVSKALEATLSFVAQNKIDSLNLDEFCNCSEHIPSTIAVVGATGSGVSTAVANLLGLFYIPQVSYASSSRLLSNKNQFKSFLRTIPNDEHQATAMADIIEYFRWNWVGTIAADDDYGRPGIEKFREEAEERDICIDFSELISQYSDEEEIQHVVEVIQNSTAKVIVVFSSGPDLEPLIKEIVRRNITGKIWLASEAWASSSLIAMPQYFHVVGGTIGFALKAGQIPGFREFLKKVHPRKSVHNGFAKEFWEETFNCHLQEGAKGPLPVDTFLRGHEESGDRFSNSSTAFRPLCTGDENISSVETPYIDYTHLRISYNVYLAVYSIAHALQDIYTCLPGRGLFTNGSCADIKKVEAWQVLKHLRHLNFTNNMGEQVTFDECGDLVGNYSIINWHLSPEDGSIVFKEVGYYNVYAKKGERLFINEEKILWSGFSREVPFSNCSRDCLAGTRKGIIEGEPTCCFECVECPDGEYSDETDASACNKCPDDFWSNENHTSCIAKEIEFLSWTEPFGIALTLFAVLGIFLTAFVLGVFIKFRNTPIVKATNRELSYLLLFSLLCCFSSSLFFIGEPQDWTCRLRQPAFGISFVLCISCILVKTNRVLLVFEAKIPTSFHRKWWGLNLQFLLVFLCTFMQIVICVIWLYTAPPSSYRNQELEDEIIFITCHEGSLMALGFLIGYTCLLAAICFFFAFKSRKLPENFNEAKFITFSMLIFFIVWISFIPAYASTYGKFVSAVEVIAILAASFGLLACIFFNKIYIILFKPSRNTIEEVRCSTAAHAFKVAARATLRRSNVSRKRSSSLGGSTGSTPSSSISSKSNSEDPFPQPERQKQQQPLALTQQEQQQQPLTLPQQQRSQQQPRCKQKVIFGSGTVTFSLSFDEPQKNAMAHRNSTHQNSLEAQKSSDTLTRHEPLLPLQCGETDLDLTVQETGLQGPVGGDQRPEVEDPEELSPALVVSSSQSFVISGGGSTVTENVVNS

[5] = agonist mode, read-out: EC50 (Agonist)
[6] = double-injection protocol, agonist mode and PAM mode

[Ca] [Calcium]
EC50 ([1]; listed as Ca2^+): 1300 µM
EC50 ([1]; listed as Ca^2+): 1300 µM and 1500 µM
EC50 [2, 5]: 1620 µM
Activity Type [2, 6]: Agonist

N=C(N)NCCC[C@H](N)C(=O)O [L-Arginine]
Activity Type [1]: PAM EC50 of Ca^2+ moved from 1.5 mM to 0.72 mM in presence of 10 mM L-Arginine

NCCCC[C@H](N)C(=O)O [L-Lysine]
Activity Type [1]: PAM EC50 of Ca^2+ moved from 1.5 mM to 0.72 mM in presence of 10 mM L-Lysine

N[C@@H](Cc1ccccc1)C(=O)O [L-Phenylalanine]
Activity Type ([1]; single-injection PAM mode): PAMs and PAM
Comments: Umami-active for cats [3]: umami-active
Feline CaSR agonist ([2]; Yes/No): do not activate

N[C@@H](Cc1c[nH]c2ccccc12)C(=O)O [L-Tryptophan]
Activity Type ([1]; single-injection PAM mode): PAMs and PAM
Comments: Umami-active for cats [3]: umami-active
Feline CaSR agonist ([2]; Yes/No): do not activate

C[C@H](N)C(=O)O [L-alanine]
Human CaSR agonist [4]: Yes
Comments: Umami-active for cats [3]: Umami-active
Feline CaSR agonist ([2]; Yes/No): do not activate and No

N[C@@H](Cc1c[nH]cn1)C(=O)O [L-histidine]
Human CaSR agonist [4]: Yes
Comments: Umami-active for cats [3]: Umami-active
Feline CaSR agonist ([2]; Yes/No): do not activate and No

NC[C@@H]1O[C@H](O[C@H]2[C@@H](O)[C@H](O[C@@H]3[C@@H](O)[C@H](N)C[C@H](N)[C@H]3O[C@H]3O[C@H](CN)[C@@H](O)[C@H](O)[C@H]3N)O[C@@H]2CO)[C@H](N)[C@@H](O)[C@@H]1O [Neomycin, reference compound]
Activity Type [2]: Agonist EC50 1.87 mM
EC50 [2]: 1870 µM

N[C@@H](Cc1ccc(OP(=O)(O)O)cc1)C(=O)O [O-phospho-L-tyrosine]
Activity Type [2, 6]: Agonist

CC[C@H](NC(=O)CC[C@H](N)C(=O)O)C(=O)NCC(=O)O [Ophthalmic Acid] (γGlu-[Abu]-Gly-OH)
EC50 [2, 5]: 2660 µM
Activity Type [2, 6]: Agonist

NC[C@@H]1O[C@H](O[C@H]2[C@@H](O)[C@H](O[C@@H]3[C@@H](O)[C@H](N)C[C@H](N)[C@H]3O[C@H]3O[C@H](CO)[C@@H](O)[C@H](O)[C@H]3N)O[C@@H]2CO)[C@H](N)[C@@H](O)[C@@H]1O [Paromomycin, reference compound]
Activity Type [2, 6]: Agonist

[Pr] [Praseodymium]
EC50 [2, 5]: 398 µM
Activity Type [2, 6]: Agonist

NCCCCN [Putrescine]
Human CaSR agonist [4]: Yes
Feline CaSR agonist [2]: No

NC[C@H]1O[C@H](O[C@H]2[C@H](O[C@@H]3O[C@H](CO)[C@@H](O)[C@H]3O)[C@@H](O)[C@H](N)C[C@@H]2N)[C@H](N)[C@@H](O)[C@@H]1O [Ribostamycin, reference compound]
Activity Type [2, 6]: Agonist

N[C@@H](CCC(=O)N[C@@H](CSCCO)C(=O)NCC(=O)O)C(=O)O [S-(2-Hydroxyethyl)glutathione]
Activity Type [2, 6]: Agonist

CSC[C@H](NC(=O)CC[C@H](N)C(=O)O)C(=O)NCC(=O)O [S-Methylglutathione]
Activity Type [2, 6]: Agonist

C[Se]C[C@H](N)C(=O)O [Se-(Methyl)selenocysteine]
EC50 [2, 5]: 4470 µM
Activity Type [2, 6]: Agonist

CN[C@@H]1[C@@H](O)[C@@H](O[C@@H]2[C@@H](O)[C@H](O[C@H]3OC(CN)=CC[C@H]3N)[C@@H](N)C[C@H]2N)OC[C@]1(C)O [Sisomicin, reference compound]
Activity Type [2, 6]: Agonist

NCCCCNCCCN [Spermidine]
Activity Type [2, 6]: Agonist

NCCCNCCCCNCCCN [Spermine]
Activity Type [2]: Agonist

[Sr+2] [Strontium]
Activity Type [2, 6]: Agonist

COC(=O)C(NC1CCc2c(F)cccc21)c1cccc(C#N)c1 (stereo not drawn) [methyl 2-(3-cyanophenyl)-2-((4-fluoro-2,3-dihydro-1H-inden-1-yl)amino)acetate]
EC50 ([2]; PAM mode, CaCl2 injected at EC20, read-out: EC50 (PAM)): 58.9 µM
Activity Type [2, 6]: PAM

NC(CCC(=O)NC(Cc1c[nH]c2ccccc12)C(=O)O)C(=O)O [γ-D-Glu-Trp, H-gamma-D-Glu-Trp-OH]
EC50 [2, 5]: 4200 µM
Activity Type [2, 6]: Agonist

C[C@H](NC(=O)CC[C@H](N)C(=O)O)C(=O)O [γ-Glu-Ala, L-gamma-Glutamyl-L-alanine]
Activity Type [2, 6]: Agonist

N[C@@H](CCC(=O)N[C@@H](Cc1ccccc1)C(=O)O)C(=O)O [γ-Glu-Phe]
EC50 [2, 5]: 2320 µM
Activity Type [2, 6]: Agonist

N[C@@H](CCC(=O)N[C@@H](Cc1ccc(O)cc1)C(=O)O)C(=O)O [γ-Glu-Tyr]
Activity Type [2, 6]: Agonist

CC(C)[C@H](NC(=O)CC[C@H](N)C(=O)O)C(=O)NCC(=O)O [γ-Glu-Val-Gly]
EC50 [2, 5]: 4220 µM
Activity Type [2, 6]: Agonist

CC(C)[C@H](NC(=O)CC[C@H](N)C(=O)O)C(=O)O [γ-Glu-Val]
Activity Type [2, 6]: Agonist

Geneticin [reference compound]
Activity Type [2, 6]: Agonist

Poly-L-arginine
Activity Type [2]: Agonist EC50 1.01 uM
EC50 ([2]; read-out: EC50 (Agonist)): 1.01 µM

Poly-L-lysine
Activity Type [2]: Agonist

Poly-L-ornithine
Activity Type [2]: Agonist EC50 0.240 mM
EC50 ([2]; read-out: EC50 (Agonist)): 240 µM

Terbium
EC50 [2, 5]: 175 µM
Activity Type [2, 6]: Agonist

Tobramycin [reference compound]
Activity Type [2, 6]: PAM
